Results as given in US5300668A, “Certain esters of 1-(4-X-methylphenyl)cyclopent-3-ene-1-carboxylic acid, wherein X is a trialkylsilyloxy, bromo or hydroxy group, as intermediates” (Pfizer Inc., priority 1993, dated 1994).

Legend:
[1] = biological target: T1, rat liver AII receptors (Rattus norvegicus, UniProt P25095); test: in vitro AII rat liver binding assay (displacement of 125I SARILE AII); conditions: displacement of 125I SARILE AII from rat liver membranes; assay run with or without BSA; read-out: IC50 (concentration of compound which inhibits binding by 50%)
T1 construct: from tissue; host or cells: liver membranes (100,000 g pellet) of male Sprague-Dawley rats
T1 sequence (P25095 1-359): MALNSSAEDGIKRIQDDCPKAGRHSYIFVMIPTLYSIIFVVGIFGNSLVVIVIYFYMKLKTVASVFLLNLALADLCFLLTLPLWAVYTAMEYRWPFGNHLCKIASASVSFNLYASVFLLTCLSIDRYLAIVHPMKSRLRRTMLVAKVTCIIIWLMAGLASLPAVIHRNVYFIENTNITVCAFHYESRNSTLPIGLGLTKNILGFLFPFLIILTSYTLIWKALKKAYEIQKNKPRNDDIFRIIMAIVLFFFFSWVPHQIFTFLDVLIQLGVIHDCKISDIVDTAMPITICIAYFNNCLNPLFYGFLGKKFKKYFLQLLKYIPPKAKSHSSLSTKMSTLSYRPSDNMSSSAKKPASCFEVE
Method: The compound of the present invention is readily adapted to clinical use as a modulator of AII action at the AII receptor. The ability of the compound to modulate AII action was determined by an in vitro AII rat liver binding assay which measures its ability to displace ^125 I sarcosine-1, isoleucine-8, angiotensin II (SARILE AII, obtained from New England Nuclear) from rat liver AII receptors. For this assay, the following materials are used.
Homogenation buffer (10 mM Tris, 0.2M sucrose, 1.0 mM EDTA), prepared using 1.21 g Tris base, […] sucrose and 336 mg EDTA in 1000 ml water, adjusted to pH 7.4 using HCl.
Buffer A (50 mM Tris, 5 mM MgCl2), prepared using 6.05 g Tris base and 1.02 g MgCl2.6H2 O in 1000 ml water.
Assay buffer, prepared using 200 ml Buffer A and 0.5 g BSA. […]
The compound being tested is made up to an initial concentration of 2 mM in 100% DMSO. […] The filters are cut, placed in test tubes and counted on a Gamma Counter. The mean for all triplicate points are calculated and total specific binding is calculated by subtracting nonspecific counts from total counts. Binding in the presence of compound (COUNTS) is calculated by subtracting nonspecific counts from counts in the presence of compound. Percent binding of SARILE All in the presence of compound is calculated by dividing COUNTS by total specific counts. […]

[2] = tested on: mean arterial pressure; test: in vivo blood pressure lowering in low sodium diet, furosemide-treated rats; conditions: oral or parenteral dosing; sodium-depleted Sprague-Dawley rats
Method: The ability of the compounds of the invention to lower blood pressure in mammals was determined by the following in vivo protocol. Sprague-Dawley rats are placed on a low sodium diet (Purina Labs, 0.07% sodium) for 15 days. On days 11 and 13 of this period, the rats are given furosemide (Lasix, 8 mg/kg, i.m.). On day 13, the animals are anesthetized with a pentobarbital-chloral hydrate mixture (30 mg/kg pentobarbital sodium and 10 mg/kg chloral hydrate, i.p.) and the carotid artery and jugular vein are cannulated using PE50 tubing (Clay-Adams). After a 24 hour recovery period, the animals are injected on day 14 with Lasix (10 mg/kg, i.m.) and are placed in plexiglass chambers for blood pressure recording. […] When possible, blood pressure is also checked after 24 hours. According to this protocol, the compound of the invention is effective in lowering mean arterial pressure at oral dosages from about 0.1 mg/kg to about 30 mg/kg, and at parenteral dosages from about 0.01 mg/kg to about 10 mg/kg, with a duration of action of greater than 24 hours.

IC50 [1]: < 100 nM
SMILES: CCc1nc2c(C)cc(C)nc2n1Cc1ccc(C2(C(=O)O)CC=CC2)cc1 [Example 1, 1-[4'-(2"-ethyl-5",7"-dimethylimidazo[4,5-b]pyridin-3-yl)methylphenyl]cyclopent-3-ene-1-carboxylic acid]
duration of action (lowering of mean arterial pressure) [2]: greater than 24 hours
